Laboratory results published in patent publication US20140205631A1, “Stimulation of vaccination by angiotensin peptides” (University of Southern California, priority 2013, published 2014).

Tests used:
HIV-gp120 antigen [1] = assay: Vaginal secretion IgG antibody titers (ELISA) after vaccination of cats; type: in vivo, human immunodeficiency virus (HIV); details: for IgG Anti-HIV gp120: vaginal, Week 8, lowest dilution 1:4, elution factor 300-fold
Procedure: (§1) Animals: Eleven (11) female outbred cats>24 weeks old that were free of FIV, feline leukemia virus (FeLV) and feline infectious peritonitis virus were employed. The animals were restrained for the application of test articles to mucous membranes and collection of blood and mucosal secretions. Sedation, if necessary, was induced by subcutaneous administration of ketamine hydrochloride (22 mg/kg) and acepromazine maleate (0.1 mg/kg). Euthanasia was accomplished with a lethal overdose of barbiturates. All activities were approved by the Institutional Animal Care and Use Committee and supervised by veterinary staff.
(§2) Vaccine Preparation: Fel-O-Vax FIV (Fort Dodge Animal Health, Fort Dodge, Iowa) and A(1-7) was combined in a constant volume of 2% hydroxyethyl cellulose (2% HEC). The range of concentrations of A(1-7) ranged from 0 to 10 mg/mL with a constant 0.33 mL of Fel-O-Vax FIV suspended in each mL of the gel applied for vaccination purposes. Two control animals received intramuscular Fel-O-Vax FIV at baseline, week 3 and week 5. One control animal had mucosal vaccination with Fel-O-Vax alone suspended in the 2% HEC without A(1-7) and one control animal received intramuscular Fel-O-Vax FIV with 0.3 mg/kg of A(1-7) at baseline, week 3 and week 5.
(§3) Delivery of angiotensin(1-7) and FIV vaccine to mucosal surfaces: 2% HEC, a viscous gel, was used as the vehicle for the topical delivery of angiotensin(1-7) and FIV vaccine. The topical vaccine was applied to the mucosal surface weekly for 6 consecutive weeks. 1.0 mL was applied to the muzzle for oral mucosal vaccination and 1.0 mL and 0.2 mL was instilled in the rectal and vaginal vaults, respectively for mucosal vaccination at these sites.
(§4) Measurement of Local Immune Response: The Weck-Cel Surgical Spear (Windsor Biomedical, Newton, N.H.) was used to obtain secretions. Once inserted, the sponge is allowed to remain in place for 5 minutes. The secretions were extracted by centrifugation with 300 μL of a buffer solution. The buffer solution is prepared by mixing 50 μL of 100× protease inhibitor cocktail and 250 μL of 10% Igepal (Sigma, St Louis, Mo., U.S.A.) with 4.7 ml of phosphate-buffered saline (PBS) containing 0.25% bovine serum albumin (BSA, Fraction V; Sigma). The 100× protease inhibitor cocktail contains 100 μg/mL aprotinin, 500 μg/mL leupeptin, 100 μg/mL bestatin (all Sigma), and 50 μg/mL 4-(2-Aminoethyl)-benzenesulfonyl fluoride hydrochloride (Roche Applied Sciences, U.S.A.) in phosphate buffered saline.
(§5) The local immune response in mucosal secretions was evaluated against the homologous FIV-p24 antigen (Cell Biolabs, Inc, San Diego, Calif.) or the heterologous HIV-gp120 antigen (ImmunoDiagnostics, Inc, Woburn, Mass.). Plates were prepared with 50 ng/mL FIV-p24 antigen or with 500 ng/mL HIV-gp120 antigen (Bachem Americans, Inc, Torrance, Calif.) incubated over night at 4° C., washed and the target sample added and incubated overnight again at 4° C. The plates were washed and the indicator goat anti-feline IgG (Accurate Chemical & Scientific Corp., Westbury, N.Y., working titer 1:10,000) or goat anti-feline IgA (Accurate Chemical & Scientific Corp., Westbury, N.Y., working titer 1:1,000) added and incubated for 24 hours at 4° C. Following a final wash, substrate solution was added. The stop solution was added after 15 minutes for the IgG reaction and after 30 minutes for the IgA reaction. Plates were read at 450 nm.

HIV-gp120 antigen [2] = assay: Vaginal secretion SIgA antibody titers (ELISA) after vaccination of cats; type: in vivo, human immunodeficiency virus (HIV); details: for SIgA Anti-HIV gp120: vaginal, Week 8, lowest dilution 1:4, elution factor 300-fold
Procedure: as §1, §2, §3
Measurement of Local Immune Response: The Weck-Cel Surgical Spear (Windsor Biomedical, Newton, N.H.) was used to obtain secretions. […]
(§6) The local immune response in mucosal secretions was evaluated against the homologous FIV-p24 antigen (Cell Biolabs, Inc, San Diego, Calif.) or the heterologous HIV-gp120 antigen (ImmunoDiagnostics, Inc, Woburn, Mass.). […] Plates were read at 450 nm.

HIV-gp120 antigen [3] = assay: Rectal secretion SIgA antibody titers (ELISA) after vaccination of cats; type: in vivo, human immunodeficiency virus (HIV); details: parenteral vaccination or topical application of Fel-O-Vax FIV with A(1-7)
Procedure: as §1
as §2, with “One control animal had mucosal vaccination with Fel-O-Vax alone suspended in the 2% HEC without A(1-7) and one control animal received intramuscular Fel-O-Vax FIV with 0.3 mg/kg of A(1-7) at baseline, week 3 and week 5.” left out
as §6

FIV-p24 antigen = assay: Oral secretion SIgA antibody titers (ELISA) after vaccination of cats; type: in vivo, feline immunodeficiency virus (FIV)
Procedure: as §1, §2, §3, §4, §5

FIV-p24 = assay: Oral secretion IgG antibody titers (ELISA) after vaccination of cats; type: in vivo, feline immunodeficiency virus (FIV); details: Week 8, lowest dilution 1:4, elution factor 4-fold
Procedure: as §1, §2, §3, §4, §6

[4] = topical Fel-O-Vax FIV + 0.1 A(1-7) in 2% HEC
[5] = topical Fel-O-Vax FIV + 5.0 A(1-7) in 2% HEC
[6] = topical Fel-O-Vax FIV + 10.0 A(1-7) in 2% HEC

Q: What does the source list for “Asp-Arg-Val-Tyr-Ile-His-Pro (DRVYIHP) [A(1-7)]”?
A: IgG antibody induction in vaginal secretions (HIV-gp120 antigen [1]; topical, higher dose levels of A(1-7)): declined; IgG anti-HIV-gp120 antibodies in vaginal secretions (HIV-gp120 antigen [1]; topical, lower dose levels of A(1-7)): also elicited; IgG Anti-HIV gp120 (HIV-gp120 antigen [1]; [4]): Negative; IgG Anti-HIV gp120 (HIV-gp120 antigen [1]; [5]): Negative; IgG Anti-HIV gp120 (HIV-gp120 antigen [1]; topical Fel-O-Vax FIV + 7.5 A(1-7) in 2% HEC): Negative; IgG Anti-HIV gp120 (HIV-gp120 antigen [1]; [6]): Negative; SIgA-anti-HIV-gp120 antibodies in vaginal secretions (HIV-gp120 antigen [2]; Topical application of FIV antigen with A(1-7)): substantial; SIgA Anti-HIV gp120 (HIV-gp120 antigen [2]; [4]): Negative; SIgA Anti-HIV gp120 (HIV-gp120 antigen [2]; [5]): Negative; SIgA anti-HIV-gp120 (rectal, Table 4) (HIV-gp120 antigen [3]): High levels; SIgA Anti-FIV-p24 (FIV-p24 antigen; IM Fel-O-Vax FIV + 0.3 mg/kg A(1-7), Week 2, lowest dilution Undilute): Negative; SIgA Anti-FIV-p24 (FIV-p24 antigen; IM Fel-O-Vax FIV + 0.3 mg/kg A(1-7), Week 4, lowest dilution Undilute): Undilute; SIgA Anti-FIV-p24 (FIV-p24 antigen; IM Fel-O-Vax FIV + 0.3 mg/kg A(1-7), Week 8, lowest dilution Undilute): Undilute; SIgA Anti-FIV-p24 (FIV-p24 antigen; topical Fel-O-Vax FIV + 0.1 A(1-7) in 2% HEC, Week 2, lowest dilution Undilute): Negative; SIgA Anti-FIV-p24 (FIV-p24 antigen; topical Fel-O-Vax FIV + 0.1 A(1-7) in 2% HEC, Week 4, lowest dilution Undilute): Negative; SIgA Anti-FIV-p24 (FIV-p24 antigen; topical Fel-O-Vax FIV + 0.1 A(1-7) in 2% HEC, Week 6, lowest dilution Undilute): Undilute; SIgA Anti-FIV-p24 (FIV-p24 antigen; topical Fel-O-Vax FIV + 0.1 A(1-7) in 2% HEC, Week 8, lowest dilution Undilute): Negative; SIgA Anti-FIV-p24 (FIV-p24 antigen; topical Fel-O-Vax FIV + 0.2 A(1-7) in 2% HEC, Week 2, lowest dilution Undilute): Negative; SIgA Anti-FIV-p24 (FIV-p24 antigen; topical Fel-O-Vax FIV + 0.2 A(1-7) in 2% HEC, Week 4, lowest dilution Undilute): Negative; SIgA Anti-FIV-p24 (FIV-p24 antigen; topical Fel-O-Vax FIV + 0.2 A(1-7) in 2% HEC, Week 6, lowest dilution Undilute): Negative; SIgA Anti-FIV-p24 (FIV-p24 antigen; topical Fel-O-Vax FIV + 0.2 A(1-7) in 2% HEC, Week 8, lowest dilution Undilute): Negative; SIgA Anti-FIV-p24 (FIV-p24 antigen; topical Fel-O-Vax FIV + 0.3 A(1-7) in 2% HEC, Week 2, lowest dilution Undilute): Negative; SIgA Anti-FIV-p24 (FIV-p24 antigen; topical Fel-O-Vax FIV + 0.3 A(1-7) in 2% HEC, Week 4, lowest dilution Undilute): Negative; SIgA Anti-FIV-p24 (FIV-p24 antigen; topical Fel-O-Vax FIV + 0.3 A(1-7) in 2% HEC, Week 6, lowest dilution Undilute): Negative; SIgA Anti-FIV-p24 (FIV-p24 antigen; topical Fel-O-Vax FIV + 0.3 A(1-7) in 2% HEC, Week 8, lowest dilution Undilute): Negative; SIgA Anti-FIV-p24 (FIV-p24 antigen; topical Fel-O-Vax FIV + 0.4 A(1-7) in 2% HEC, Week 4, lowest dilution Undilute): Undilute; SIgA Anti-FIV-p24 (FIV-p24 antigen; topical Fel-O-Vax FIV + 0.4 A(1-7) in 2% HEC, Week 6, lowest dilution Undilute): Negative; SIgA Anti-FIV-p24 (FIV-p24 antigen; topical Fel-O-Vax FIV + 5.0 A(1-7) in 2% HEC, Week 2, lowest dilution Undilute): Undilute; SIgA Anti-FIV-p24 (FIV-p24 antigen; topical Fel-O-Vax FIV + 7.5 A(1-7) in 2% HEC, Week 4, lowest dilution Undilute): Negative; SIgA Anti-FIV-p24 (FIV-p24 antigen; topical Fel-O-Vax FIV + 10.0 A(1-7) in 2% HEC, Week 2, lowest dilution Undilute): Negative; SIgA Anti-FIV-p24 (FIV-p24 antigen; topical Fel-O-Vax FIV + 10.0 A(1-7) in 2% HEC, Week 4, lowest dilution Undilute): Negative; SIgA Anti-FIV-p24 (FIV-p24 antigen; topical Fel-O-Vax FIV + 10.0 A(1-7) in 2% HEC, Week 6, lowest dilution Undilute): Negative; SIgA Anti-FIV-p24 (FIV-p24 antigen; topical Fel-O-Vax FIV + 10.0 A(1-7) in 2% HEC, Week 8, lowest dilution Undilute): Negative; IgG anti-FIV-p24 (FIV-p24; [4]): Negative; IgG anti-FIV-p24 (FIV-p24; topical Fel-O-Vax FIV + 0.2 A(1-7) in 2% HEC): Negative; IgG anti-FIV-p24 (FIV-p24; topical Fel-O-Vax FIV + 0.3 A(1-7) in 2% HEC): Negative; IgG anti-FIV-p24 (FIV-p24; [6]): Negative
